Experimental data from article PMC6102691, “Identification of a novel ligand for the ATAD2 bromodomain with selectivity over BRD4 through a fragment growing approach” (Organic & Biomolecular Chemistry, 2018).

What was measured:
ATAD2 bromodomain = biological target: T1, ATAD2 bromodomain (Homo sapiens, UniProt Q6PL18); experiment: Surface plasmon resonance (SPR) direct binding to ATAD2; settings: SPR format assay; Kd above the top concentration projected by extrapolation (extrapolated Rmax from control compound)
T1 construct: 981-1108; GST (N); made in house; host or cells: Escherichia coli BL21 (DE3) pLysS, plasmid pGEX-6P-1
T1 sequence (Q6PL18 981-1108): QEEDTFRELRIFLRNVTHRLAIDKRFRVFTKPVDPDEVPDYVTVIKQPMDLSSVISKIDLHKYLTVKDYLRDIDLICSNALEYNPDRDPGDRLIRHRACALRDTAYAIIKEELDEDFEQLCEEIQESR
Procedure: (§1) Surface plasmon resonance (SPR) was used to assess the direct binding of the fragments and provide Kd values for binding to both ATAD2 and BRD4. SPR can yield artefactual data where the concentration of a small-molecular analyte exceeds ∼250 μM, and accordingly, this was the highest concentration used in the assays.
(§2) 12.5 μM using an Echo 550 (Labcyte). Each well was backfilled to a final volume of 200 nl (for the […]), resulting in final DMSO concentrations of 2 %. 5 μl of GST-ATAD2 was added to each well and incubated for 30mins resulting in a final concentration of 5 nM.
(§3) 5μl of biotinylated-histone H4 peptide (SGRG-K(Ac)-GG-K(Ac)-GLG-K(Ac)-GGA-K(Ac)- RHRKVGG-K(Biotin)) was then added to each well at a final concentration of 500nM. Both GST-ATAD2 and peptide were diluted in buffer B (50 mM Tris pH 7.5, […], 1 mM DTT, 100 μg/ml bovine serum albumin (BSA)). The plate was then incubated at room temperature for 30mins and then 5 μl LanthaScreen® Tb-anti-GST Antibody (Life Technologies) at final concentration of 5 nM was added to each well and incubated for an additional 30mins. 5 μl of streptavidin-XLL65 (Cisbio Assay) at a final concentration of […] was added to each assay well. Both dyes were diluted in buffer C (50 mM Tris pH 7.5, […], 100 μg/ml BSA). The plate was incubated at room temperature for a further 30mins and then read using a PheraStar FS (BMG Labtech). The data were analysed using Graphpad […]
(§4) 1.4 Surface Plasmon Resonance (SPR).
(§5) SPR-based ligand binding assays were performed using Biacore S200 (GE Healthcare) at 25 °C using single cycle affinity.
(§6) ATAD2N1064A was achieved using standard amine coupling on a CM5 chip surface. The surface was prepared through activation with EDC/NHS, followed by injection of 10 µg/ml of respective proteins until target level 8000 RU was reached. The surface was then quenched using 1 M Ethanolamine and washed with running buffer 10 mM HEPES, 150mM NaCl, 0.01% TWEEN20, 0.5 mM TCEP and 1% DMSO with a flow rate of […]. Compounds were injected in a dose-response manner (8 concentration points ranging from 0-200 µM) in series across the control, ATAD2, BRD4, and ATAD2-N1064A flow cells using solvent correction to account for bulk refractive index changes. The reference control channel was subtracted […]
(§7) from immobilised channels and dose-response data was fitted using a steady state constant Rmax 1:1 binding model, using an extrapolated Rmax determined from a binding control compound in those cases where the extrapolated Kd value was greater than the top concentration used in the experiment (200 µM). K d values are reported to the nearest 100th of micromolar. 1 […]
(§8) Crystallisation was performed at 20 °C using the hanging drop vapor diffusion method.
(§9) Crystals of ATAD2 were grown by mixing 2µl ATAD2 at 7mg/ml and 2µl precipitant containing 0.1 M BIS-TRIS pH 6.5 and 2.0 M ammonium sulfate. Crystals were harvested in a diffusion solution containing 10 mM compound, 5% DMSO, 25 mM HEPES pH 7.5, 75 mM NaCl, 50 mM BIS-TRIS pH 6.5 and 1.0 M Ammonium Sulfate for 48hrs. Prior to data collection the crystals were cryo protected with the addition of 25% (v/v) ethylene glycol to the diffusion solution. X-ray diffraction data were recorded at Diamond Light Source (Harwell, Oxfordshire, UK). Data processing was carried out using XDS, POINTLESS/AIMLESS2 and other programs of the CCP4i suite3 run through the CCP4i2 gui. Structures were solved by molecular replacement using PHASER4 and pdb 3DAI as a starting model. REFMAC5 was employed for refinement, and model building was performed using COOT6. PDBs were deposited within the protein database www.pdb.org using accession codes: 11 XXXX, 15a […]

BRD4 = BRD4 (Homo sapiens, UniProt O60885); experiment: Surface plasmon resonance (SPR) direct binding to BRD4; settings: SPR format assay; Kd above the top concentration projected by extrapolation (extrapolated Rmax from control compound)
Procedure: as §1, with “assays. Where the Kd exceeded this limit, projected Kds were determined by extrapolation, using the observed response units for compound binding (RU) relative to the molecular weight of a known control compound.[23]” for “assays.”
as §2, §3, §4, §5, §6, §7, §8, §9

[1] = biological target: T2, GST-ATAD2 bromodomain / biotinylated acetylated histone H4 peptide (Homo sapiens, UniProt Q6PL18); experiment: ATAD2-histone displacement HTRF assay; format: binding; settings: for IC50: HTRF format assay, highest concentration 1000 μM; for ATAD2 LE: Ligand efficiency (LE) = 1.4(–log IC50)/N, N = number of non-hydrogen atoms, from HTRF IC50
T2 construct: 981-1108; made in house; host or cells: Escherichia coli BL21 (DE3) pLysS, plasmid pGEX-6P-1
T2 sequence (Q6PL18 981-1108): T1 sequence (Q6PL18 981-1108)
Procedure: as §1
1.1 Protein Purification.
The ATAD2 bromodomain 981-1108 was expressed with an N-terminal GST fusion from the pGEX-6P-1 plasmid. The plasmids were transformed into BL21 (DE3) pLysS Escherichia coli (Novagen) and then the cells grown in luria bertani (LB) media at 37 °C until an OD600 of 0.6 was reached. The temperature was reduced to 20 °C and expression induced using 0.2 mM Isopropyl β-D-1-thiogalactopyranoside (IPTG). The cells were harvested after overnight incubation and resuspended in buffer A (20 mM HEPES pH 7.4, 100 mM NaCl, 5 mM Dithiothreitol (DTT)). The cells were lysed by sonication and the lysate cleared by centrifugation (50,000 x g, 4 °C, 1 hr). The protein was passed over 5ml of glutathione Sepharose 4B resin (GE Healthcare) at 4 °C. The resin was then washed with buffer A and the protein eluted with buffer A supplemented with 10 mM glutathione. The protein was then applied to a Superdex 200 26/60 gel filtration column (GE Healthcare) equilibrated in buffer […]
1.2 Isothermal Titration Calorimetry.
ATAD2 was exchanged into ITC buffer (50 mM HEPES pH7.4, 200 mM NaCl, 1 mM DTT).
ITC measurements were carried out at 25°C on a Microcal ITC 200 (Malvern Instruments Ltd, Malvern, UK). Compound 11 at 40mM, 2% DMSO was titrated into ATAD2 prepared in the cell at 150 μM, 2% DMSO. Titrations began with an initial 0.5 μL injection followed by 19x 2 μL injections of compound, with 120s spacing between each injection, and stirred at 1000 rpm throughout the experiment. Data were then analysed using Origin 7.0 (OriginLab Corp., Burlington, NC, USA) and fit with the one-set-of-sites model.
1.3 ATAD2-Histone displacement HTRF assay.
Compounds (dissolved to 100 mM in DMSO) were dispensed into black 384 well assay plates […]
as §2, §3, §4, §5
ATAD2N1064A was achieved using standard amine coupling on a CM5 chip surface. The surface was prepared through activation with EDC/NHS, followed by injection of 10 µg/ml of respective proteins until target level 8000 RU was reached. The surface was then quenched using 1 M Ethanolamine and washed with running buffer 10 mM HEPES, 150mM NaCl, 0.01% TWEEN20, 0.5 mM TCEP and 1% DMSO with a flow rate of […]. Compounds were injected in a dose-response manner (8 concentration points ranging from 0-200 µM) in series across the control, ATAD2, BRD4, and ATAD2-N1064A flow cells using solvent correction to account for bulk refractive index changes. The reference control channel was subtracted

Compound | melting point | Kd (ATAD2 bromodomain) | Kd (BRD4) | IC50 [1] | ATAD2 LE [1]
Cc1ccc(Cn2cc3c(cc2=O)C(C)(C)C(=O)N3C)cc1 [Compound 17l] | 180 to 182 °C | > 200 µM | 58 µM | 274 ± 75 µM | 0.23
CN1C(=O)C(C)(C)c2cc(=O)n(Cc3cccc(C#N)c3)cc21 [Compound 17p] | – | > 200 µM | 184 µM | 668 ± 28 µM | 0.19
CN1C(=O)C(C)(C)c2cc(=O)n(Cc3ccccc3C(=O)O)cc21 [Compound 17q] | – | > 2000 µM | > 200 µM | > 1000 µM | –
CCC1(CC)C(=O)N(C)c2cn(Cc3ccc(Cl)cc3)c(=O)cc21 [Compound 18a] | – | 107 µM | > 200 µM | 163 ± 23 µM | 0.22
CCC1(CC)C(=O)N(C)c2cn(Cc3ccc(C(F)(F)F)cc3)c(=O)cc21 [Compound 18b] | – | > 200 µM | > 2000 µM | 163 ± 37 µM | 0.20
CN1C(=O)C(C)(Cc2ccccc2)c2cc(=O)n(Cc3ccc(Cl)cc3)cc21 (stereo not drawn) [Compound 22a] | – | > 200 µM | > 2000 µM | > 1000 µM | –
CN1C(=O)C(C)(Cc2ccccn2)c2cc(=O)n(Cc3ccc(Cl)cc3)cc21 (stereo not drawn) [Compound 22b] | – | > 200 µM | > 200 µM | > 1000 µM | –
Cc1nc(CC2(C)C(=O)N(C)c3cn(Cc4ccc(Cl)cc4)c(=O)cc32)cs1 (stereo not drawn) [Compound 22c] | – | 110 µM | > 200 µM | 352 µM | 0.17
CN1C(=O)C(C)(CC(C)(C)C)c2cc(=O)n(Cc3ccc(Cl)cc3)cc21 (stereo not drawn) [Compound 22d] | – | 125 µM | > 2000 µM | 489 ± 18 µM | 0.18
CN1C(=O)C(C)(CC2(C)COC2)c2cc(=O)n(Cc3ccc(Cl)cc3)cc21 (stereo not drawn) [Compound 22e] | – | > 200 µM | > 2000 µM | 214 µM | 0.19
CN1C(=O)C(C)(CC2CC2)c2cc(=O)n(Cc3ccc(Cl)cc3)cc21 (stereo not drawn) [Compound 22f] | – | 113 µM | > 200 µM | 304 ± 83 µM | 0.20
